Laboratory results as given in patent publication US20220135591A1, “HETEROCYCLIC COMPOUNDS AS INHIBITORS OF MONOACYLGLYCEROL LIPASE (MAGL)” (Hoffmann-La Roche Inc., priority 2019, published 2022).

Molecular target: T1, MAGL (recombinant wild-type) (Homo sapiens, UniProt Q99685)
T1 sequence (Q99685 1-303): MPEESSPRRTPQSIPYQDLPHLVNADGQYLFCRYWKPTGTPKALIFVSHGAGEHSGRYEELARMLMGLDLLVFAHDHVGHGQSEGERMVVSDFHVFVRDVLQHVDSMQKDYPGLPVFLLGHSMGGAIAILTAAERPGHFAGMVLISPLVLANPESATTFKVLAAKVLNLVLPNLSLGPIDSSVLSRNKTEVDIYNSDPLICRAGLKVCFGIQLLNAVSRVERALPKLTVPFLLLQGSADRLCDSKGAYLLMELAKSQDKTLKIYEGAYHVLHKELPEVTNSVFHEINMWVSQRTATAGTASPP
Test: 4-NPA assay: MAGL inhibitory activity by hydrolysis of 4-nitrophenylacetate, absorbance at 405 nm
Type: biochemical
Conditions: 4-NPA assay (values without footnote [b])
In short: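 Final assay: 1 nM MAGL and 300 μM 4-nitrophenylacetate in 50 mM Tris, 1 mM EDTA, at RT. Compounds (25 μM–1.7 nM, 3-fold steps) were preincubated 15 min with enzyme. A405 was read 5 min after substrate addition and again after 80 min; activity was taken as the difference between reads.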

SMILES | IC50
CC(C)(C)n1cc(-c2ccc(C(=O)N3CCN(c4nc5nc(Cl)ccc5o4)CC3)cc2)cn1 [Example 48, [4-(1-tert-butylpyrazol-4-yl)phenyl]-[4-(5-chlorooxazolo[4,5-b]pyridin-2-yl)piperazin-1-yl]methanone] | 0.015 µM
CC1(Cn2cnc(-c3ccc(C(=O)N4CCN(c5nc6nc(Cl)ccc6o5)CC4)cc3)n2)CC1 [Example 49, [4-(5-chlorooxazolo[4,5-b]pyridin-2-yl)piperazin-1-yl]-[4-[1-[(1-methylcyclopropyl)methyl]-1,2,4-triazol-3-yl]phenyl]methanone] | 0.013 µM
CC1(Cn2ncnc2-c2ccc(C(=O)N3CCN(c4nc5nc(Cl)ccc5o4)CC3)cc2)CC1 [Example 50, [4-(5-chlorooxazolo[4,5-b]pyridin-2-yl)piperazin-1-yl]-[4-[2-[(1-methylcyclopropyl)methyl]-1,2,4-triazol-3-yl]phenyl]methanone] | 4.23 µM
Cc1ccc2oc(N3CCN(C(=O)c4ccc(-c5noc(C6(C)CC6)n5)cc4)CC3)nc2n1 [Example 51, [4-[5-(1-methylcyclopropyl)-1,2,4-oxadiazol-3-yl]phenyl]-[4-(5-methyloxazolo[4,5-b]pyridin-2-yl)piperazin-1-yl]methanone] | 0.067 µM
CC(C)(C)c1cnn(-c2ccc(C(=O)N3CCN(c4nc5nc(Cl)ccc5o4)CC3)cc2)c1 [Example 52, [4-(4-tert-butylpyrazol-1-yl)phenyl]-[4-(5-chlorooxazolo[4,5-b]pyridin-2-yl)piperazin-1-yl]methanone] | 0.005 µM
Cc1ccc2oc(N3CCN(C(=O)c4ccc(-n5cc(C(C)(C)C)cn5)cc4)CC3)nc2n1 [Example 53, [4-(4-tert-butylpyrazol-1-yl)phenyl]-[4-(5-methyloxazolo[4,5-b]pyridin-2-yl)piperazin-1-yl]methanone] | 0.012 µM
Cc1ccc2oc(N3CCN(C(=O)c4ccc(-c5cnn(CC(C)(C)C)c5)cc4)CC3)nc2n1 [Example 54, [4-[1-(2,2-dimethylpropyl)pyrazol-4-yl]phenyl]-[4-(5-methyloxazolo[4,5-b]pyridin-2-yl)piperazin-1-yl]methanone] | 0.006 µM
Cc1ccc2oc(N3CCN(C(=O)c4ccc(-n5cnc(C(C)(C)C)c5)cc4)CC3)nc2n1 [Example 55, [4-(4-tert-butylimidazol-1-yl)phenyl]-[4-(5-methyloxazolo[4,5-b]pyridin-2-yl)piperazin-1-yl]methanone] | 0.063 µM
Cc1ccc2oc(N3CCN(C(=O)c4ccc(-c5noc(C(C)(C)C)n5)c(C)c4)CC3)nc2n1 [Example 56, [4-(5-tert-butyl-1,2,4-oxadiazol-3-yl)-3-methyl-phenyl]-[4-(5-methyloxazolo[4,5-b]pyridin-2-yl)piperazin-1-yl]methanone] | 0.011 µM
Cc1cc(C(=O)N2CCN(c3nc4nc(Cl)ccc4o3)CC2)ccc1-c1noc(C(C)(C)C)n1 [Example 57, [4-(5-tert-butyl-1,2,4-oxadiazol-3-yl)-3-methyl-phenyl]-[4-(5-chlorooxazolo[4,5-b]pyridin-2-yl)piperazin-1-yl]methanone] | 0.005 µM
Cc1ccc2oc(N3CCN(C(=O)c4ccc(-c5noc(C(C)(C)C)n5)c(F)c4)CC3)nc2n1 [Example 58, [4-(5-tert-butyl-1,2,4-oxadiazol-3-yl)-3-fluoro-phenyl]-[4-(5-methyloxazolo[4,5-b]pyridin-2-yl)piperazin-1-yl]methanone] | 0.043 µM
CC(C)(C)c1nc(-c2ccc(C(=O)N3CCN(c4nc5nc(Cl)ccc5o4)CC3)cc2F)no1 [Example 59, [4-(5-tert-butyl-1,2,4-oxadiazol-3-yl)-3-fluoro-phenyl]-[4-(5-chlorooxazolo[4,5-b]pyridin-2-yl)piperazin-1-yl]methanone] | 0.015 µM
CC1(COc2ccc(C(=O)N3CCN(c4nc5nc(Cl)ccc5o4)CC3)cc2Cl)CC1 [Example 60, [3-chloro-4-[(1-methylcyclopropyl)methoxy]phenyl]-[4-(5-chlorooxazolo[4,5-b]pyridin-2-yl)piperazin-1-yl]methanone] | 0.046 µM
CC(C)(C)c1nc(-c2ccc(C(=O)N3CCN(c4nc5nc(Cl)ccc5o4)CC3)cn2)no1 [Example 61, [6-(5-tert-butyl-1,2,4-oxadiazol-3-yl)-3-pyridyl]-[4-(5-chlorooxazolo[4,5-b]pyridin-2-yl)piperazin-1-yl]methanone] | 0.272 µM
Cc1ccc2oc(N3CCN(C(=O)c4ccc(-c5noc(C(C)(C)C)n5)nc4)CC3)nc2n1 [Example 62, [6-(5-tert-butyl-1,2,4-oxadiazol-3-yl)-3-pyridyl]-[4-(5-methyloxazolo[4,5-b]pyridin-2-yl)piperazin-1-yl]methanone] | 0.871 µM
CC(C)(C)c1cn(-c2ccc(C(=O)N3CCN(c4nc5nc(Cl)ccc5o4)CC3)cc2)cn1 [Example 63, [4-(4-tert-butylimidazol-1-yl)phenyl]-[4-(5-chlorooxazolo[4,5-b]pyridin-2-yl)piperazin-1-yl]methanone] | 0.02 µM
Cc1cc(C(=O)N2CCN(c3nc4nc(Cl)ccc4o3)CC2)ccc1OCC(C)(C)C [Example 64, [4-(5-chlorooxazolo[4,5-b]pyridin-2-yl)piperazin-1-yl]-[4-(2,2-dimethylpropoxy)-3-methyl-phenyl]methanone] | 0.005 µM
Cc1ccc2oc(N3CCN(C(=O)c4ccc(OCC(C)(C)C)c(C)c4)CC3)nc2n1 [Example 65, [4-(2,2-dimethylpropoxy)-3-methyl-phenyl]-[4-(5-methyloxazolo[4,5-b]pyridin-2-yl)piperazin-1-yl]methanone] | 0.011 µM
Cc1ccc2oc(N3CCN(C(=O)c4ccc(OCC5(C)CC5)c(Cl)c4)CC3)nc2n1 [Example 66, [3-chloro-4-[(1-methylcyclopropyl)methoxy]phenyl]-[4-(5-methyloxazolo[4,5-b]pyridin-2-yl)piperazin-1-yl]methanone] | 0.087 µM
Cc1ccc2oc(N3CCN(C(=O)c4ccc(C5(C)COC5)cc4)CC3)nc2n1 [Example 67, (4-(5-methyloxazolo[4,5-b]pyridin-2-yl)piperazin-1-yl)(4-(3-methyloxetan-3-yl)phenyl)methanone] | 0.367 µM
Cc1ccc2oc(N3CCN(C(=O)c4ccc(C5(F)CC5)cc4)CC3)nc2n1 [Example 68, (4-(1-fluorocyclopropyl)phenyl)(4-(5-methyloxazolo[4,5-b]pyridin-2-yl)piperazin-1-yl)methanone] | 4.18 µM
CC1(COc2ccc(C(=O)N3CCN(c4nc5nc(Cl)ccc5o4)CC3)cc2F)CC1 [Example 69, [4-(5-chlorooxazolo[4,5-b]pyridin-2-yl)piperazin-1-yl]-[3-fluoro-4-[(1-methylcyclopropyl)methoxy]phenyl]methanone] | 0.108 µM
Cc1ccc2oc(N3CCN(C(=O)c4ccc(-n5cnc(C(C)(C)C)n5)cc4)CC3)nc2n1 [Example 70, [4-(3-tert-butyl-1,2,4-triazol-1-yl)phenyl]-[4-(5-methyloxazolo[4,5-b]pyridin-2-yl)piperazin-1-yl]methanone] | 0.043 µM
Cc1ccc2oc(N3CCN(C(=O)c4ccc(OCC5(C)CC5)c(F)c4)CC3)nc2n1 [Example 71, [3-fluoro-4-[(1-methylcyclopropyl)methoxy]phenyl]-[4-(5-methyloxazolo[4,5-b]pyridin-2-yl)piperazin-1-yl]methanone] | 0.382 µM
